In general, melting point refers to the temperature of the solid-liquid transition.

A value given as a limit tells only on which side of the number the result lay.

Experimental findings from patent US20070286822A1, “Compounds for the Treatment of Periodontal Disease” (ANACOR PHARMACEUTICALS INC., priority 2006, published 2007) are described below.

The compound `CCOC(=O)COc1ccc2c(c1)COB2O` [C41, Ethyl 2-(1-hydroxy-1,3-dihydrobenzo[c][1,2]oxaborol-5-yloxy)acetate] showed a melting point of 134 to 137 °C. With `Fc1ccc(B2OCc3cc(F)ccc32)cc1` [9h, 1,3-Dihydro-5-fluoro-1-(4-fluorophenyl)-2,1-benzoxaborole] the figure was 75 to 77 °C. Next, `O=C(O)COc1ccc2c(c1)COB2O` [C42, 2-(1-hydroxy-1,3-dihydrobenzo[c][1,2]oxaborol-5-yloxy)acetic acid]: 163 to 166 °C; `CSc1ccc(Sc2ccc3c(c2)B(O)OC3)cc1` [C94, 6-(4-(methylthio)phenylthio)benzo[c][1,2]oxaborol-1(3H)-ol]: 117 to 120 °C. With `N#Cc1ccc(Oc2cccc3c2B(O)OC3)cc1` [C74, 4-(1-hydroxy-1,3-dihydrobenzo[c][1,2]oxaborol-7-yloxy)benzonitrile] the figure was 148 to 153 °C. Compound `OB1OCc2ccc(N3CCN(c4ccccn4)CC3)cc21` [C48, 6-(4-(pyridin-2-yl)piperazin-1-yl)benzo[c][1,2]oxaborol-1(3H)-ol] came in with a melting point of 135 to 138 °C.

Consider `Cc1cccc(B2OCc3cc(F)ccc32)c1` [9i, 1,3-Dihydro-5-fluoro-1-(3-methylphenyl)-2,1-benzoxaborole], for which the melting point was in the range of 48 to 49 °C. Next, `COc1ccc(S(=O)(=O)c2ccc3c(c2)B(O)OC3)cc1` [C33, 6-(4-methoxyphenylsulfonyl)benzo[c][1,2]oxaborol-1(3H)-ol]: 180 to 192 °C. Take `Fc1ccc2c(c1)COB2c1cccc(Cl)c1` [9f, 1-(3-Chlorophenyl)-1,3-dihydro-5-fluoro-2,1-benzoxaborole]: the melting point lay within 112 to 114 °C. In turn, `OB1OCc2cc(F)c(NCc3ccccc3)cc21` [C71, 6-(benzylamino)-5-fluorobenzo[c][1,2]oxaborol-1(3H)-ol] registered a melting point of 159 to 164 °C. Next, `OCc1cc2c(cc1Br)COB2O` [C59]: more than 257 °C; `Cc1ccc(Sc2ccc3c(c2)B(O)OC3)cc1` [C95, 6-(p-tolylthio)benzo[c][1,2]oxaborol-1(3H)-ol]: 139 to 144 °C. With `N#Cc1cccc(Oc2ccc3c(c2)B(O)OC3)c1` [C19, 3-(1-hydroxy-1,3-dihydrobenzo[c][1,2]oxaborol-6-yloxy)benzonitrile] the figure was 146 to 149 °C. With `Fc1cccc(B2OCc3cc(F)ccc32)c1` [9g, 1,3-Dihydro-5-fluoro-1-(3-fluorophenyl)-2,1-benzoxaborole] the figure was 80 to 82 °C; with `COc1ccc(Oc2ccc3c(c2)B(O)OC3)cc1` [C31, 6-(4-methoxyphenoxy)benzo[c][1,2]oxaborol-1(3H)-ol], 126 to 129 °C. For `COc1ccc2c(ccn2-c2ccc3c(c2)B(O)OC3)c1` [C68, 6-(5-methoxy-1H-indol-1-yl)benzo[c][1,2]oxaborol-1(3H)-ol], the melting point was 120 to 124 °C. Next, `OCc1cccc2c1B(O)OC2` [C64, 7-(hydroxymethyl)benzo[c][1,2]oxaborol-1(3H)-ol]: 241 to 250 °C; `CC(=O)Nc1ccc2c(c1)B(O)OC2` [C63, N-(1-hydroxy-1,3-dihydrobenzo[c][1,2]oxaborol-6-yl)acetamide]: 176 to 185 °C. With `OB1OCc2ccc(-n3ccc4cc(Cl)ccc43)cc21` [C75, 6-(5-chloro-1H-indol-1-yl)benzo[c][1,2]oxaborol-1(3H)-ol] the figure was 149 to 154 °C. Next, `OB1OCc2ccc(Sc3ccc(Cl)cc3)cc21` [C88, 6-(4-chlorophenylthio)benzo[c][1,2]oxaborol-1(3H)-ol]: 157 to 161 °C.

Compound `Fc1ccc(B2OCc3ccccc32)cc1` [9e, 1,3-Dihydro-1-(4-fluorophenyl)-2,1-benzoxaborole] had a melting point of 53 to 55 °C. With `Fc1ccc2c(c1)COB2C=Cc1ccccc1` [10b, 1,3-Dihydro-5-fluoro-1-styryl-2,1-benzoxaborole] the figure was 84 to 86 °C. In the case of `COc1ccc2c(c1)c(Sc1ccccc1)cn2-c1ccc2c(c1)B(O)OC2` [C72, 6-(5-methoxy-3-(phenylthio)-1H-indol-1-yl)benzo[c][1,2]oxaborol-1(3H)-ol], the melting point is 135 to 141 °C. With `CCCCC(=O)c1cccc(COc2ccc3c(c2)COB3O)c1` [C45, 1-(3-((1-hydroxy-1,3-dihydrobenzo[c][1,2]oxaborol-5-yloxy)methyl)phenyl)pentan-1-one] the figure was 96 to 98 °C; with `OB1OCc2ccc(Oc3ccc(C(F)(F)F)cc3)cc21` [C87, 6-(4-(trifluoromethyl)phenoxy)benzo[c][1,2]oxaborol-1(3H)-ol], 98 to 105 °C; with `O=C(COc1ccc2c(c1)COB2O)N1CCN(c2ncccn2)CC1` [C47, 2-(1-hydroxy-1,3-dihydrobenzo[c][1,2]oxaborol-5-yloxy)-1-(4-(pyrimidin-2-yl)piperazin-1-yl)ethanone], 190 to 195 °C. Next, `OB1OCc2ccc(-n3cc(Sc4ccccc4)c4cc(Cl)ccc43)cc21` [C80, 6-(5-chloro-3-(phenylthio)-1H-indol-1-yl)benzo[c][1,2]oxaborol-1(3H)-ol]: 145 to 151 °C; `OB1OCc2ccc(-n3cc(Sc4ccccc4)c4ccccc43)cc21` [C66, 6-(3-(phenylthio)-1H-indol-1-yl)benzo[c][1,2]oxaborol-1(3H)-ol]: 159 to 163 °C. Next, `OB1OCc2cccc(F)c21` [C86, 7-fluorobenzo[c][1,2]oxaborol-1(3H)-ol]: 120 to 124 °C; `Cc1ccc2c(c1)COB2O` [C8, 5-methylbenzo[c][1,2]oxaborol-1(3H)-ol]: 124 to 128 °C.

The compound `OB1OCc2ccc(F)cc21` [C13, 6-fluorobenzo[c][1,2]oxaborol-1(3H)-ol] registered a melting point of 110 to 117.5 °C. Next, `O=C(COc1ccc2c(c1)COB2O)N1CCCCC1` [C46, 2-(1-hydroxy-1,3-dihydrobenzo[c][1,2]oxaborol-5-yloxy)-1-(pieridin-1-yl)ethanone]: 158 to 163 °C; `OB1OCc2cc3c(cc21)OCO3` [C69, 5,6-methylenedioxybenzo[c][1,2]oxaborol-1(3H)-ol]: 185 to 189 °C; `O=S(=O)(c1ccc(Cl)cc1)c1ccc2c(c1)B(O)OC2` [C90, 6-(4-chlorophenylsulfonyl)benzo[c][1,2]oxaborol-1(3H)-ol]: 157 to 163 °C.

With `Fc1ccc2c(c1)COB2c1cccnc1` [compound 15, 3-(1,3-Dihydro-5-fluoro-2,1-benzoxaborol-1-yl)pyridine], the melting point was 210 to 212 °C. `O=S(=O)(Nc1ccc2c(c1)B(O)OC2)c1ccccc1` [C62, N-(1-hydroxy-1,3-dihydrobenzo[c][1,2]oxaborol-6-yl)benzenesulfonamide] showed a melting point of 175 to 184 °C. Next, `OB1OCc2ccc(N3CCOCC3)cc21` [C56, 6-morpholinobenzo[c][1,2]oxaborol-1(3H)-ol]: 128 to 132 °C; `N#CCCSc1cn(-c2ccc3c(c2)B(O)OC3)c2ccc(Cl)cc12` [C76, 3-(5-chloro-1-(1-hydroxy-1,3-dihydrobenzo[c][1,2]oxaborol-6-yl)-1H-indol-3-ylthio)propanenitrile]: more than 225 °C. Next, `COc1ccc(Sc2ccc3c(c2)B(O)OC3)cc1` [C32, 6-(4-methoxyphenylthio)benzo[c][1,2]oxaborol-1(3H)-ol]: 95 to 100 °C. In the case of `OB1OCc2ccc3ccccc3c21` [C11, naphtho[1,2-c][1,2]oxaborol-1(3H)-ol], the melting point was 139 to 143 °C. With `Nc1cc2c(cc1F)COB2O` [C70, 6-amino-5-fluorobenzo[c][1,2]oxaborol-1(3H)-ol] the figure was 142 to 145 °C; with `O=[N+]([O-])c1cc2c(cc1F)COB2O` [C58, 5-fluoro-6-nitrobenzo[c][1,2]oxaborol-1(3H)-ol], 162 to 167 °C; with `Cc1ccc(B2OCc3cc(F)ccc32)cc1` [9j, 1,3-Dihydro-5-fluoro-1-(4-methylphenyl)-2,1-benzoxaborole], 48 to 49 °C. With `OB1OCc2ccc(-n3ccc4ccccc43)cc21` [C55, 6-(1H-indol-1-yl)benzo[c][1,2]oxaborol-1(3H)-ol] the figure was 135 to 140 °C; with `OB1OCc2ccc(Sc3cccs3)cc21` [C43, 6-(thiophen-2-ylthio)benzo[c][1,2]oxaborol-1(3H)-ol], 99 to 104 °C.

In the case of `CN(c1ccc2c(c1)COB2O)S(=O)(=O)c1ccccc1` [C30, N-(1-hydroxy-1,3-dihydrobenzo[c][1,2]oxaborol-5-yl)-N-methylbenzenesulfonamide], the melting point lay in the range of 85 to 95 °C.

`[O-][S+](c1ccc(Cl)cc1)c1ccc2c(c1)B(O)OC2` (stereo not shown) [C89, 6-(4-chlorophenylsulfinyl)benzo[c][1,2]oxaborol-1(3H)-ol] showed a melting point of 154 to 161 °C.

`Fc1ccc2c(c1)COB2c1ccsc1` [compound 13, 1,3-Dihydro-5-fluoro-1-(thiophen-3-yl)-2,1-benzoxaborole] had a melting point of 33 to 35 °C.

Compound `Fc1ccc2c(c1)COB2c1ccccc1` [9b, 1,3-Dihydro-5-fluoro-1-phenyl-2,1-benzoxaborole] displayed a melting point of 90 to 99 °C.
